Like-named read-outs stand apart in the source and are kept apart here.
Tests used:
[1] = pH 6
[2] = SNAC solubility vs SNAC control, hydrotrope 200 mg/mL, pH 6
[3] = hydrotrope 200 mg/mL in water, pH 6, room temperature, 4 hours incubation

SMILES	Fold increase in solubility [2]	SNAC concentration [3]	Fold increase in solubility (pH 6)	SNAC concentration (pH 6)	effect on SNAC solubility (FIG. 1) [1]
CN(C)C(=O)c1ccccc1 [N,N dimethyl benzamide]	38	22.46 mg/mL	–	–	–
CCN(CC)C(=O)c1cccnc1 [N,N diethyl nicotinamide]	7.8	4.58 mg/mL	–	–	–
O=C([O-])c1ccccc1O.[Na+] [Sodium salicylate]	–	–	2.7	1.59 mg/mL	–
NC(=O)c1cccnc1 [Nicotinamide]	–	–	–	–	dose dependent effect
NC(N)=O [Urea]	1.3	0.77 mg/mL	–	–	–
O=C(O[C@@H]1Cc2c(O)cc(O)cc2O[C@@H]1c1cc(O)c(O)c(O)c1)c1cc(O)c(O)c(O)c1 [Epigallocatechin gallate]	9.6	5.66 mg/mL	–	–	–

— US20220395559A1, “SOLID COMPOSITIONS COMPRISING A GLP-1 AGONIST, AN SGLT2 INHIBITOR AND A SALT OF N-(8-(2-HYDROXYBENZOYL)AMINO)CAPRYLIC ACID” (Novo Nordisk A/S, priority 2019, published 2022)
